Experiment in all cases: NCI-60 cell line screen, 48 h
Assay [1] deals with A498.
The subject of assay [2] is DU-145.
For assay [3], the system named is HCT-116.
The subject of assay [4] is HCT-15.
In assay [5] the test system is HL-60.
Assay [6] has as its system KM12.
The subject of assay [7] is LOX IMVI.
The subject of assay [8] is MCF7.
Assay [9] relates to NCI-H522.
Assay [10] concerns SF-268.
Assay [11] relates to SF-295.
Assay [12] concerns SK-MEL-28.
For assay [13], the system named is SK-OV-3.
Assay [14] has as its system SN12C.
Assay [15] relates to SR.
The test system of assay [16] is T47D.
Assay [17] relates to UO-31.
The subject of assay [18] is CCRF-CEM.
Assay [19] concerns NCI-H226.
For assay [20], the system named is SK-MEL-5.

Structures are written as SMILES.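 Test compounds were applied to cells in 96-well plates for 48 hours at 5 doses. GI50 is the concentration that inhibits growth by half.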 Calls of active or inactive are those of the source. Cut-off read from the data, not from the text of the source: active = GI50 up to about 1.1 µM and inactive = higher.

For `c1ccc2sc(SCCSc3nc4ccccc4s3)nc2c1`, the GI50 is > 100 µM (inactive) in assay [1]; > 100 µM (inactive) in [2]; > 100 µM (inactive) in assay [3]; > 100 µM in [4]; 65.8 µM (inactive) in assay [5]; 52.4 µM (inactive) in [6]. Further, the GI50 in assay [7], in assay [8], in assay [9], in assay [10], in assay [11] and in assay [12] was > 100 µM (inactive) throughout. Besides, the GI50 in [13], in assay [14], in assay [15], in [16] and in assay [17] was > 100 µM (inactive) throughout.
Take `CCOC(=O)C(=CNC(=S)N/N=C1\C(=O)Nc2ccccc21)C(=O)OCC`: the GI50 in assay [1] was 41.9 µM (inactive); in [18], 41.9 µM (inactive); in [2], > 100 µM (inactive); in assay [3] it was > 100 µM (inactive); in assay [5], 31 µM (inactive); in assay [6], 52 µM (inactive). For the same molecule, the GI50 is > 100 µM (inactive) in assay [7]; 92.9 µM (inactive) in [8]; > 100 µM (inactive) in [19]; 43.8 µM (inactive) in [10]; > 100 µM (inactive) in [11]; > 100 µM (inactive) in assay [12]. For the same molecule, the GI50 is 90.8 µM (inactive) in assay [20]; > 100 µM (inactive) in [13]; > 100 µM (inactive) in assay [14]; 69.3 µM (inactive) in assay [15]; > 100 µM (inactive) in [16]; 29 µM (inactive) in [17].
Regarding `COc1cc(-c2oc(/C=N/c3ccccc3)c([N+](=O)[O-])c2-c2ccc(O)c(OC)c2)ccc1O`, the GI50 in assay [18] is 6.31 µM (inactive); in assay [2] it was 20.1 µM (inactive); in assay [3] it was 18.4 µM (inactive); in assay [4] it was 14.4 µM; in assay [5], 0.412 µM (active); in [6], 21.7 µM (inactive). For the same molecule, the GI50 in assay [7] is 9.57 µM (inactive); in assay [8] it was 23.9 µM (inactive); in [19], 26.9 µM (inactive); in assay [9], 12.5 µM (inactive); in assay [10] it was 19.7 µM (inactive); in assay [11], 31.6 µM (inactive). The GI50 was 19.5 µM (inactive) in assay [12]; 23.7 µM (inactive) in assay [20]; > 41.8 µM (inactive) in assay [13]; 27 µM (inactive) in assay [14]; 2.86 µM (inactive) in assay [15]; 38.9 µM (inactive) in assay [16]. The GI50 in assay [17] is 15.1 µM (inactive).
Consider `C#C[C@]1(O)CC[C@H]2[C@@H]3CCC4=C/C(=N/OC(=O)c5cccc6cc7ccccc7nc56)CC[C@@H]4[C@H]3CC[C@@]21CC`, for which the GI50 was > 100 µM (inactive) in assay [1]; 52.2 µM (inactive) in assay [18]; > 100 µM (inactive) in assay [2]; > 100 µM (inactive) in assay [3]; > 100 µM in assay [4]; > 100 µM (inactive) in assay [5]. Further, the GI50 in [6] is > 100 µM (inactive); in [7], > 100 µM (inactive); in [8] it was 76 µM (inactive); in [19], > 100 µM (inactive); in assay [10] it was > 100 µM (inactive); in assay [12], > 100 µM (inactive). In addition, the GI50 in assay [20] is > 100 µM (inactive); in assay [13], > 100 µM (inactive); in [14] it was > 100 µM (inactive); in assay [15] it was 44.4 µM (inactive); in assay [16] it was 33.8 µM (inactive).
Take `O=C1CC(c2ccco2)C2(C(=O)NC(=O)NC2=O)C(c2ccco2)C1` (stereo unspecified): the GI50 in assay [1] is > 75 µM (inactive); in assay [18] it was > 75 µM (inactive); in assay [2] it was > 75 µM (inactive); in assay [3], > 75 µM (inactive); in assay [4], > 75 µM; in assay [5] it was > 75 µM (inactive). Also, the GI50 in [6], in [7], in assay [8], in assay [9], in [10] and in assay [11] was > 75 µM (inactive) each time. For the same molecule, the GI50 in assay [12], in assay [20], in assay [13], in assay [14], in [15] and in [16] was > 75 µM (inactive) in each case. In assay [17], the GI50 is > 75 µM (inactive).
With `O=c1[nH]nc(-c2ccc3ccccc3c2)[nH]1`, the GI50 in assay [1] is 80 µM (inactive); in assay [18], > 100 µM (inactive); in assay [2], > 100 µM (inactive); in assay [3], > 100 µM (inactive); in assay [4], > 100 µM; in assay [5], > 100 µM (inactive). The GI50 in assay [6] is 36.2 µM (inactive); in assay [7], > 100 µM (inactive); in assay [8], > 100 µM (inactive); in [19] it was > 100 µM (inactive); in [9], > 100 µM (inactive); in [10], > 100 µM (inactive). Also, the GI50 in [11] is 45.5 µM (inactive); in [12] it was > 100 µM (inactive); in assay [14], > 100 µM (inactive); in assay [15] it was 45.1 µM (inactive); in assay [16] it was > 100 µM (inactive); in assay [17], 43.3 µM (inactive).
For the molecule `CN1c2ccccc2C(=O)NC12CCN(Cc1ccccc1)CC2`, the GI50 in assay [1] is 57.1 µM (inactive); in [18], 35.6 µM (inactive); in [2], 71.6 µM (inactive); in assay [3], 44.9 µM (inactive); in assay [4] it was 42.5 µM; in assay [5], 30.5 µM (inactive). Further, the GI50 is 46 µM (inactive) in [6]; 46 µM (inactive) in assay [7]; 46 µM (inactive) in assay [8]; 27.5 µM (inactive) in assay [19]; 89.7 µM (inactive) in assay [10]; 32 µM (inactive) in assay [11]. The GI50 in assay [12] was 73.8 µM (inactive); in [20], 54.8 µM (inactive); in assay [13], 84.9 µM (inactive); in assay [14] it was 49.4 µM (inactive); in [15] it was 33.3 µM (inactive); in [16] it was 70.3 µM (inactive). Moreover, the GI50 in assay [17] was 34.6 µM (inactive).
Regarding `Cc1c2c(n3c(nc4ccccc43)c1C#N)NCC2`, the GI50 in assay [1] is > 10 µM (inactive); in assay [18] it was > 10 µM (inactive); in assay [2], > 10 µM (inactive); in [3], > 10 µM (inactive); in [4], > 10 µM; in assay [5], > 10 µM (inactive). In addition, the GI50 in assay [6], in assay [7], in assay [8], in [19], in assay [10] and in assay [11] was > 10 µM (inactive) each time. Besides, the GI50 in [12], in assay [20], in assay [13], in assay [14], in [15] and in assay [16] was > 10 µM (inactive) each time. Moreover, the GI50 in assay [17] is > 10 µM (inactive).

(Values after ChEMBL document CHEMBL1201862, “PubChem BioAssay data set” (2004).)
